{"source": "patent US20260083826A1", "about": "“NEW SYNTHETIC DRUGS FOR TREATING ALZHEIMER'S DISEASE” (OKINAWA INSTITUTE OF SCIENCE AND TECHNOLOGY SCHOOL …, priority 2022, published 2026)", "key": {"[1]": {"test_system": "calyx of Held presynaptic terminals", "experiment": "Simultaneous pre- and postsynaptic whole-cell recording of EPSCs at the calyx of Held in brainstem slices", "type": "cell-based, mouse", "conditions": "for EPSC amplitude 30 min after infusion (normalized to baseline) / EPSC amplitude remaining 30 min after infusion (normalized to baseline): 20 μM loaded in presynaptic terminal; for Effect on h-tau-induced EPSC rundown: 1 mM co-loaded with h-tau 20 μM, 30 min after infusion; for EPSC amplitude at 30 min (normalized to baseline): 1 μM intra-terminal; for Prevention of WT h-tau-induced EPSC rundown: 20 μM co-loaded with WT h-tau 20 μM"}, "β3-tubulin": {"test_system": "β3-tubulin", "experiment": "Immunofluorescence quantification of MTs in calyceal terminals", "type": "cell-based, mouse", "protocol": "(§1) The following primary antibodies were used: anti-β3-tubulin (Synaptic System, #302304), anti-human Tau (BioLegend, #806501), anti-dynamin (Invitrogen, PA1-660). Secondary antibodies were goat IgG conjugated with Alexa Fluor 488, 568, or 647 (Thermo Fisher Scientific). Acute brainstem slices (175 μm in thickness, see below) were fixed with 4% paraformaldehyde in PBS for 30 min at 37° C. and overnight at 4° C. On the following day, slices were rinsed three times in PBS, permeabilized in PBS containing 0.5% Triton X-100 (Tx-100; Nacalai Tesque) for 30 min and blocked in PBS containing 3% bovine serum albumin (BSA; Sigma-Aldrich) and 0.05% Tx-100 for 45 min. Slices were incubated overnight at 4° C. with primary antibody diluted in PBS 0.05% Tx-100, 0.3% BSA. On the next day, slices were rinsed three times with PBS containing 0.05% Tx-100 for 10 min and incubated with corresponding secondary antibody diluted in PBS 0.05% Tx-100, 0.3% BSA for 1 h at room temperature (RT). […] For quantifying fluorescence intensity levels, the region of interest was delimited around calyceal terminals, and background fluorescence was subtracted using ImageJ software.\n(§2) The monomeric GTPases dynamin 1 and 3 play critical roles in the endocytic fission of SVs (50-52). […] To test this hypothesis, we performed immunofluorescence microscopy and image analysis to quantify MTs and dynamin. […]"}, "dynamin1": {"test_system": "dynamin1", "experiment": "Immunofluorescence quantification of bound-form dynamin in calyceal terminals", "type": "cell-based, mouse", "protocol": "as §1, §2"}, "[2]": {"test_system": "calyx of Held presynaptic terminals", "experiment": "Membrane capacitance measurements (SV exo-endocytosis) at calyx of Held presynaptic terminals", "type": "cell-based, mouse", "conditions": "for Presynaptic Ca2+ current charge (QCa) / Exocytic capacitance magnitude / Endocytic rate (endocytic capacitance change): 20 μM; for Presynaptic Ca2+ current charge (QCa): 20-30 min after patch membrane rupture; for Exocytic capacitance magnitude: vs controls; for Effect on h-tau-induced endocytic slowing: 0.25 mM co-loaded with WT h-tau 20 μM"}, "porcine tubulin": {"target": "porcine tubulin (Sus scrofa, UniProt P02550+P02554)", "sequence (P02550 whole entry)": "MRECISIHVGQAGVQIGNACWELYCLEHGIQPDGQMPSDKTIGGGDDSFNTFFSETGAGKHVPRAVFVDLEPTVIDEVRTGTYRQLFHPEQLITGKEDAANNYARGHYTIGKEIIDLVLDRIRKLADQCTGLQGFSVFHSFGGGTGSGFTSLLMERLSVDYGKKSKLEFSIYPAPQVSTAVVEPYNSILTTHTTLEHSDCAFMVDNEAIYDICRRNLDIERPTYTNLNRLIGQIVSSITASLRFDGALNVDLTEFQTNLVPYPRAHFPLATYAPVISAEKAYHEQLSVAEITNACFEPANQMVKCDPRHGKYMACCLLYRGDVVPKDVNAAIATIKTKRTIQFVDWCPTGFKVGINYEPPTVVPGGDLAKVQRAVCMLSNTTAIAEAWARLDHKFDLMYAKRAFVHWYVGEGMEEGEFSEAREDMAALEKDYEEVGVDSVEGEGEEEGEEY", "sequence (P02554 whole entry)": "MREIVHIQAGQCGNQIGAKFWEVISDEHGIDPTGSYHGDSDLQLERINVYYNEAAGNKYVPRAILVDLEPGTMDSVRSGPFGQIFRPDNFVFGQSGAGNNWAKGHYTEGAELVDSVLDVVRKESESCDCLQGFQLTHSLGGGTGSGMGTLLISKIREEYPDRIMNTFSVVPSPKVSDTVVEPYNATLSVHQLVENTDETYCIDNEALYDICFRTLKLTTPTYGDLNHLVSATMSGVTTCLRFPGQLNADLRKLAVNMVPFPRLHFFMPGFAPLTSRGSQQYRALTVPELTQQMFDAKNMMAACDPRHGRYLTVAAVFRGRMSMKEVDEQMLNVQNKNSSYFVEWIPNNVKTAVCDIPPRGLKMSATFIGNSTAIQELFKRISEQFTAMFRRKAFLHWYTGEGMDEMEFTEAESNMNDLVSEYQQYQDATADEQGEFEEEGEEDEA", "experiment": "Tubulin polymerization assay (MT assembly)", "type": "biochemical"}, "MT-dynamin 1 binding": {"target": "T1, MT-dynamin 1 binding (Sus scrofa, UniProt P02550+P02554)", "T1 construct": "His", "T1 sequence (P02550 whole entry)": "as the sequence (P02550 whole entry) above", "T1 sequence (P02554 whole entry)": "as the sequence (P02554 whole entry) above", "experiment": "MT-dynamin binding assay (microtubule spin-down, SDS-PAGE, SYPRO Orange)", "design": "species or system human", "protocol": "Microtubule binding assay was performed using Microtubule Binding Protein Spin Down Assay Kit (cat #BK029, Cytoskeleton Inc., Denver, CO, USA). Briefly, 20 μl of 5 mg/ml tubulin in general tubulin buffer (GTB; 80 mM PIPES pH7.0, 2 mM MgCl2, 0.5 mM EGTA) supplemented with 1 mM GTP were polymerized by adding 2 μl of cushion buffer (80 mM PIPES pH7.0, 1 mM MgCl2, 1 mM EGTA, 60% glycerol), and incubated at 35° C. for 20 min. Microtubules were stabilized with 20 μM Taxol. Taxol-stabilized microtubules (2.5 μM) and dynamin 1 ([…]) were incubated in GTB with or without 1 mM peptide at room temperature for 30 min. After incubation, the 50 μl of mixture was loaded on top of 100 μl cushion buffer supplemented with 20 μM Taxol, and then centrifuged at 100,000×g for 40 min at room temperature. After the ultracentrifugation, 50 μl of supernatant was taken and mixed with 10 μl of 5×sample buffer. The resultant pellet was resuspended with 50 μl of 1×sample buffer. Twenty μl of each sample was analyzed by SDS-PAGE and stained with SYPRO Orange. Protein bands were visualized using FLA-3000 (FUJIFILM Co. LTD, Tokyo, Japan).\nMTs were prepared from tubulin and stabilized by taxol. And then taxol stabilized MTs and Dyn1 were incubated with/without PHDP5. Using ultracentrifugation to separate supernatant (unbinding protein) and pellet (bound protein) fractions. Samples were analyzed by SDS-PAGE gel and visualized by SYPRO Orange staining. […] This may cause by competitive binding of Dyn1/PHDP5 to MTs (FIG. 6A).\nWe changed the incubation order that MTs were mixed with PHDP5 and then incubated with Dyn1.\nFor optimizing the condition of PHDP5 to block MT-dynamin binding, we have tried different PHDP5 concentration and incubation period with Dyn1. […] Without PHDP5, there is no difference between each time point (FIG. 7B). […] We prepared several FITC-labeled PHDP5 peptide candidates to improve the brain barrier permeability of PHDP5 (Table 3). The N-terminus of the construct was protected with β-alanine (BA) and labeled with FITC. Under the same condition, several FITC-labeled PHDP5 candidates and its' scrambled control were also tested."}, "[3]": {"conditions": "30 min after patch membrane rupture"}, "[4]": {"conditions": "30 min after patch membrane rupture, listed as h-tau"}}, "note": "Entries after “also recorded” stand apart in the source; their conditions may differ."}
{"molecule": "WT h-tau: wild-type recombinant human tau of ON4R isoform expressed in E. coli", "values": [{"measurement": "Miniature EPSC amplitude and frequency", "setting": "[1]; 20 μM intra-terminal loading", "value": "neither amplitude nor frequency was affected"}, {"measurement": "EPSC amplitude 30 min after infusion (normalized to baseline)", "setting": "[1]; EPSCs evoked at 0.1 Hz", "value": "85±12", "unit": "%"}, {"measurement": "EPSC amplitude 30 min after infusion (normalized to baseline)", "setting": "[1]; EPSCs evoked at 0.1 Hz, listed as h-tau", "value": 85, "unit": "%+12"}, {"measurement": "EPSC amplitude remaining 30 min after infusion (normalized to baseline)", "setting": "[1]; EPSCs evoked at 1 Hz", "value": "65±5", "unit": "%"}, {"measurement": "EPSC amplitude remaining 30 min after infusion (normalized to baseline)", "setting": "[1]; EPSCs evoked at 1 Hz, listed as h-tau", "value": "23±9", "unit": "%"}, {"measurement": "Increase in MT (β3-tubulin) signals vs terminals without loading", "setting": "β3-tubulin; 20 μM whole-cell infusion", "value": 2.1, "unit": "fold"}, {"measurement": "β3-tubulin immunofluorescence intensity vs control terminals", "setting": "β3-tubulin; WT h-tau loading", "value": "significantly increased"}, {"measurement": "Increase in dynamin signal vs terminals without loading", "setting": "dynamin1; 20 μM whole-cell infusion", "value": 2.6, "unit": "fold"}, {"measurement": "dynamin1 immunofluorescence intensity vs control terminals", "setting": "dynamin1; WT h-tau loading", "value": "significantly increased"}, {"measurement": "Presynaptic Ca2+ current charge (QCa)", "setting": "[2]", "value": "not different from controls; also recorded: remained unchanged"}, {"measurement": "Presynaptic Ca2+ current charge (QCa)", "setting": "[2]; listed as h-tau", "value": "without a change"}, {"measurement": "Exocytic capacitance magnitude", "setting": "[2]; 20 min after patch membrane rupture", "value": "not different from controls; also recorded: remained similar to controls"}, {"measurement": "Endocytic rate (endocytic capacitance change)", "setting": "[2]; 20 min after patch membrane rupture, vs non-loading controls", "value": "significant slowing; also recorded: significantly prolonged"}, {"measurement": "Endocytic rate (endocytic capacitance change)", "setting": "[2]; [3]", "value": "further prolonged"}, {"measurement": "Exocytic capacitance magnitude", "setting": "[2]; [3]", "value": "significantly less than controls"}, {"measurement": "Exocytic capacitance magnitude", "setting": "[2]; [4]", "value": "significant reduction"}, {"measurement": "Endocytic rate (endocytic capacitance change)", "setting": "[2]; [4]", "value": "further slowed"}, {"measurement": "MT assembly in in vitro tubulin polymerization assay", "setting": "porcine tubulin; 10 μM", "value": "MT assembly"}]}
{"molecule": "PHDP5: synthetic dodecapeptide corresponding to amino acids 560-571 of dynamin 1 (PH domain); inhibits MT-dynamin interaction (EKKYMLSVDNLK)", "values": [{"measurement": "Effect on EPSC amplitude, loaded alone", "setting": "[1]; 1 mM alone", "value": "did not affect"}, {"measurement": "Effect on EPSC amplitude, loaded alone", "setting": "[1]; 1 mM alone, listed as DPHP5", "value": "no effect"}, {"measurement": "Effect on h-tau-induced EPSC rundown", "setting": "[1]", "value": "significantly attenuated"}, {"measurement": "Effect on h-tau-induced EPSC rundown", "setting": "[1]; listed as DPHP5", "value": "attenuated"}, {"measurement": "Inhibition of MT-dynamin 1 interaction", "setting": "MT-dynamin 1 binding; 1 mM peptide", "value": "significantly inhibited; also recorded: strongly inhibits"}, {"measurement": "% of Dyn1 in pellet fraction", "setting": "MT-dynamin 1 binding; MTs incubated with 1 mM, shorter incubation period with Dyn1 (10 min)", "value": "lower"}, {"measurement": "% of Dyn1 in pellet fraction", "setting": "MT-dynamin 1 binding; MTs incubated with 3 mM compared with 1 mM", "value": "lower"}, {"measurement": "% of Dyn1 in pellet fraction", "setting": "MT-dynamin 1 binding; MTs incubated with 3 mM, incubation with Dyn1 for 5 min", "value": "lower"}, {"measurement": "% of Dyn1 in pellet fraction", "setting": "MT-dynamin 1 binding; MTs mixed with PHDP5 first, then incubated with Dyn1", "value": "decreased"}, {"measurement": "Dynamin 1 in precipitates (ppt fraction) relative to total amount", "setting": "MT-dynamin 1 binding; peptide added to MT and dynamin 1, 22.6±2.4% with MT without peptide", "value": "6.3±2.4", "unit": "%"}, {"measurement": "% of Dyn1 in pellet fraction", "setting": "MT-dynamin 1 binding; taxol stabilized MTs and Dyn1 incubated together with/without PHDP5", "value": "no difference"}, {"measurement": "Effect on exo-endocytic capacitance changes, loaded alone", "setting": "[2]; 0.25 mM alone", "value": "no effect"}, {"measurement": "Effect on h-tau-induced endocytic slowing", "setting": "[2]", "value": "significantly attenuated"}, {"measurement": "Effect on h-tau-induced endocytic slowing", "setting": "[2]; listed as DPHP5", "value": "significant difference"}]}
{"molecule": "CC(=O)O[C@H]1C(=O)[C@@]2(C)[C@H]([C@H](OC(=O)c3ccccc3)[C@]3(O)C[C@H](OC(=O)[C@H](O)[C@@H](NC(=O)c4ccccc4)c4ccccc4)C(C)=C1C3(C)C)[C@]1(OC(C)=O)CO[C@@H]1C[C@@H]2O", "note": "[taxol, reference compound]", "values": [{"measurement": "EPSC amplitude at 30 min (normalized to baseline)", "setting": "[1]; EPSCs evoked at 0.1 Hz", "value": "104±3.0", "unit": "%"}, {"measurement": "EPSC amplitude at 30 min (normalized to baseline)", "setting": "[1]; EPSCs evoked at 0.1 Hz, listed as Taxol", "value": "105±3.0", "unit": "%"}, {"measurement": "EPSC amplitude at 30 min (normalized to baseline)", "setting": "[1]; EPSCs evoked at 1 Hz", "value": "41±12", "unit": "%"}, {"measurement": "EPSC amplitude at 30 min (normalized to baseline)", "setting": "[1]; EPSCs evoked at 1 Hz, listed as Taxol", "value": "41.4±12", "unit": "%"}, {"measurement": "MT assembly in in vitro tubulin polymerization assay", "setting": "porcine tubulin; 1 μM", "value": "assembles tubulins into MTs; also recorded: MT assembly"}]}
{"molecule": "COC(=O)Nc1nc2ccc(C(=O)c3cccs3)cc2[nH]1", "note": "[nocodazole, reference compound]", "values": [{"measurement": "Effect on EPSC amplitude, loaded alone", "setting": "[1]; 20 μM alone", "value": "no effect"}, {"measurement": "Prevention of WT h-tau-induced EPSC rundown", "setting": "[1]", "value": "fully prevented"}, {"measurement": "Prevention of WT h-tau-induced EPSC rundown", "setting": "[1]; listed as Nocodazole", "value": "prevented EPSC rundown"}, {"measurement": "Effect on exo-endocytosis, loaded alone", "setting": "[2]; 20 μM alone", "value": "no effect"}, {"measurement": "Prevention of h-tau-induced block of SV endocytosis", "setting": "[2]; 20 μM co-loaded with h-tau 20 μM, 25 min after loading", "value": "fully prevented"}, {"measurement": "Concentration at which maximal inhibition of h-tau-dependent MT assembly is reached", "setting": "porcine tubulin", "value": 20, "unit": "µM"}, {"measurement": "Inhibition of h-tau-dependent MT assembly", "setting": "porcine tubulin; nocodazole 1, 10, 20, 50 μM, ON4R h-tau (20 μM)", "value": "inhibited h-tau-dependent MT assembly in a concentration-dependent manner; also recorded: Concentration-dependent inhibitory effects"}]}
{"molecule": "O=C1NC(=S)N(c2cccc(Br)c2)C(=O)/C1=C/c1ccco1", "note": "[SMFH2, reference compound]", "values": [{"measurement": "Effect on SV endocytosis", "setting": "[2]; calyceal terminals in slices from post-hearing mice (P13-14)", "value": "slightly prolonged SV endocytosis, but this effect was statistically insignificant"}]}
{"molecule": "del-MTBD: human tau deletion mutant lacking the MT-binding domain (amino acid 244 to 367) (protein) MAEPRQEFEVMEDHAGTYGLGDRKDQGGYTMHQDQEGDTDAGLKAEEAGIGDTPSLEDEAAGHVTQARMVSKSKDGTGSDDKKAKGADGKTKIATPRGAAPPGQKGQANATRIPAKTPPAPKTPPSSGEPPKSGDRSGYSSPGSPGTPGSRSRTPSLPTPPTREPKKVAVVRTPPKSPSSAKSRLNKKIETHKLTFRENAKAKTDHGAEIVYKSPVVSGDTSPRHLSNVSSTGSIDMVDSPQLATLADEVSASLAKQGL", "values": [{"measurement": "Effect on EPSC amplitude, loaded alone", "setting": "[1]; 20 μM alone", "value": "no effect"}, {"measurement": "MT assembly in in vitro tubulin polymerization assay", "setting": "porcine tubulin; 10 μM, listed as Del-MTBD", "value": "lacking tubulin polymerization capability"}]}
